Assay results from patent publication US8722649B2, “Alpha-chloro and alpha-bromo phosphonate analogs of lysophosphatidic acid and methods of making and using thereof” (University of Utah Research Foundation, priority 2007, dated 2014).
Entries after “also recorded” stand apart in the source; their conditions may differ. Where two headings read alike, the source gives them in different places.

What was measured:
Type in all cases: cell-based
human LPA3 = target: T1, human LPA3 (Homo sapiens, UniProt Q9UBY5); experiment: Ca2+ mobilization assay, LPA3; conditions: for EC50: RH7777 cells stably expressing LPA3, agonist mode; for LPA3 (Emax): Emax = (maximal efficacy of compound/maximal efficacy of LPA 18:1) × 100; for LPA3 ligand type: agonist/antagonist in words
T1 construct: expressed in transfected cells
T1 sequence (Q9UBY5 1-353): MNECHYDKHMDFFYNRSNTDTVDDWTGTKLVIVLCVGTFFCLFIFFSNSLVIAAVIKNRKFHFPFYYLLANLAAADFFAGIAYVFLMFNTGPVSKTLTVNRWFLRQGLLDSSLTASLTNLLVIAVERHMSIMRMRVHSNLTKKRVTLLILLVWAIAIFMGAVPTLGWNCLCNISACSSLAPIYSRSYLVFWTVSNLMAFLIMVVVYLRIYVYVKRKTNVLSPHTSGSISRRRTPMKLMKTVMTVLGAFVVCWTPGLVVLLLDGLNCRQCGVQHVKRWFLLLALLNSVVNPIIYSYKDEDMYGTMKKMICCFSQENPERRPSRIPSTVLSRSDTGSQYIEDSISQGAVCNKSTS
Description: (§1) Receptor activation using Ca^2+ mobilization assay for diastereomers of 1 (also represented as 19b). The rat hepatoma (RH7777) cell lines individually expressing either LPA1, LPA2, LPA3 or LPA5 receptors and Chinese hamster ovary (CHO) cell line were analyzed to examine agonism and antagonism. […] CHO cells stably expressing either vector or LPA4 were kindly gifted from Dr. Shimizu (University of Tokyo, Tokyo, Japan).
Stable transformants of LPA1/2/3 receptors. RH7777 cells stably expressing each receptor were plated onto poly-L-lysine (PLL) (0.1 mg/mL)-coated black-wall clear-bottom 96-well plates (Corning Incorporated Life Sciences, Acton, Mass.) at a density of 5×10^4 cells/well and cultured overnight. The following day, the culture medium was replaced with modified Krebs buffer (120 mM NaCl, 5 mM KCl, 0.62 mM MgSO4, 1.8 mM CaCl2, 10 mM HEPES, 6 mM glucose, pH 7.4), and the cells were serum starved for 6 h. Subsequently, cells were loaded with Fura-2 AM (Invitrogen, Carlsbad, Calif.) for 35 min in modified Krebs buffer containing 2% (v/v) pluronic acid.
(§2) After incubating the cells with Fura-2 AM, the cells were rinsed with Krebs buffer and changes in the intracellular Ca^2+ concentration were monitored by determining the ratio of emitted light intensities at 520 nm in response to excitation at 340 and 380 nm using FLEXstation II (Molecular Devices, Sunnyvale, Calif.). Each well was monitored for 80-120 sec. For testing agonist activity of the compounds, the test compounds were added automatically after 15 sec of baseline measurement. […] Each test was performed in quadruplicate. EC50, IC50, and Ki values were calculated by fitting a sigmoid function to data points with the nonlinear curve-fitting feature of KaleidaGraph (Synergy Software, Essex Junction, Vt.).
(§3) Receptor activation using Ca^2+ mobilization assay. The assay for mobilization of intracellular Ca^2+ was performed as described. Briefly, rat hepatoma RH7777 cells stably expressing human LPA1, LPA2, or LPA3, and CHO cells stably expressing LPA4, were loaded with Fura-2 AM (Molecular Probes). Using a FLEXStation (Molecular Devices, Sunnyvale, Calif.), changes in intracellular Ca^2+ concentration were monitored. Ligand-induced changes in fluorescence were monitored for 80-120 seconds. Ca^2+ transients were quantified automatically by calculating the difference between maximum and baseline ratio values for each sample. […] Each test was performed in quadruplicate. EC50, IC50, and Ki values were calculated as described. The ligand properties of the compounds were evaluated using Ca^2+ mobilization assay for assessing the activation/inhibition of LPA1, LPA2, and LPA3 expressed in RH7777 cells and LPA4 expressed in CHO cells.

human LPA4 = target: T2, human LPA4 (Homo sapiens, UniProt Q99677); experiment: Ca2+ mobilization assay, LPA4 in CHO cells; conditions: for EC50: CHO cells stably expressing LPA4, agonist mode; for inhibition at 30 µM: CHO, at 30 μM (400 nM LPA), read-out: LPA4 Inhibition; for LPA4 (Emax): Emax = (maximal efficacy of compound/maximal efficacy of LPA 18:1) × 100; for LPA4 ligand type: agonist/antagonist in words
T2 construct: expressed in transfected cells
T2 sequence (Q99677 whole entry): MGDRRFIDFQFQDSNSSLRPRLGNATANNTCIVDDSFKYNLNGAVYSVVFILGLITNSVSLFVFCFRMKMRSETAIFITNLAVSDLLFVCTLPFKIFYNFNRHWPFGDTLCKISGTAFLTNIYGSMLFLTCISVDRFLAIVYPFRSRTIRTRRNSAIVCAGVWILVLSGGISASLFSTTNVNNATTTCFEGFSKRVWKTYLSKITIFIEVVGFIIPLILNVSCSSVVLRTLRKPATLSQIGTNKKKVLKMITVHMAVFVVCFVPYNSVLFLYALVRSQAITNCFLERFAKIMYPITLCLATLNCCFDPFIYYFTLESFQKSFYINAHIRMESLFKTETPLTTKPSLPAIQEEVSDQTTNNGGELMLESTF
Description: as §1
Stable transformants of LPA4. CHO cells stably expressing either vector or LPA4 were plated on non-coated 96 well plates at a density of 4×10^4 cells/well and cultured overnight. The following day, cells were loaded with Fura-2 AM for 1 h in modified Krebs buffer containing 2% (v/v) pluronic acid and 2.5 mM probenecid.
as §2, §3

human LPA5 = target: T3, human LPA5 (Homo sapiens, UniProt Q9H1C0); experiment: Ca2+ mobilization assay, LPA5 transiently transfected RH7777 cells; conditions: for Emax at 10 µM: RH7777; for LPA5 ligand type: agonist/antagonist in words
T3 construct: expressed in transfected cells; host or cells: rat hepatoma RH7777 cells, transient (Effectene)
T3 sequence (Q9H1C0 whole entry): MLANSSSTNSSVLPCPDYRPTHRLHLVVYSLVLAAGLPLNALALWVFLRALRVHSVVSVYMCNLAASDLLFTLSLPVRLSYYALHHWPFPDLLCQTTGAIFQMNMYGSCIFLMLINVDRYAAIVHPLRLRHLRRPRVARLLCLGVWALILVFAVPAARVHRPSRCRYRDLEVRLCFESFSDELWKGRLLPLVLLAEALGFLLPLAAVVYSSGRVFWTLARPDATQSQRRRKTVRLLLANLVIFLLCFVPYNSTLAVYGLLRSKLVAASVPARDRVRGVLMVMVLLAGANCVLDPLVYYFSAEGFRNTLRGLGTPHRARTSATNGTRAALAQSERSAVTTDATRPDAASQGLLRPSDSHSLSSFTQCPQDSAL
Description: as §1
Transient transfection of LPA5. RH7777 cells in a 10-cm dish at a density of 2×10^6/dish were transfected with 2 μg of plasmid DNA with Effectene (Qiagen, Valencia, Calif.) according to the manufacturer's instructions for 24 h, then replated onto PLL-coated 96-well plates at a density of 5×10^4 cells/well and cultured overnight. The following day, the culture medium was then replaced with modified Krebs buffer, and the cells were serum starved for 4 h. Subsequently, cells were loaded with Fura-2 AM for 30 min in modified Krebs buffer containing 2% (v/v) pluronic acid.
After incubating the cells with Fura-2 AM, the cells were rinsed with Krebs buffer and changes in the intracellular Ca^2+ concentration were monitored by determining the ratio of emitted light intensities at 520 nm in response to excitation at 340 and 380 nm using FLEXstation II (Molecular Devices, Sunnyvale, Calif.). Each well was monitored for 80-120 sec. For testing agonist activity of the compounds, the test compounds were added automatically after 15 sec of baseline measurement. To determine antagonist properties, varying concentrations of the compounds were mixed with a constant concentration of LPA and responses were monitored. Each test was performed in quadruplicate. EC50, IC50, and Ki values were calculated by fitting a sigmoid function to data points with the nonlinear curve-fitting feature of KaleidaGraph (Synergy Software, Essex Junction, Vt.).

[1] = antagonist mode vs 200 nM LPA, read-out: LPA3 (Ki)
[2] = diastereomer study, RH7777 cells, read-out: LPA3 IC50 (Table 2)
[3] = diastereomer study, RH7777 cells, read-out: LPA3 Ki (Table 2)
[4] = transiently transfected RH7777 cells

Row | EC50 (human LPA3) | EC50 (human LPA4) | inhibition at 30 µM (human LPA4) | LPA3 (Emax) (human LPA3) | LPA4 ligand type (human LPA4) | Structure (SMILES) | LPA4 (Emax) (human LPA4) | other results
1 | > 30000 nM | > 30 µM | 13.9% | – | – | CCCCCCCCCCCCCCCC(=O)OC[C@@H](O)CC(Br)P(=O)(O)O (mixture of isomers) [Compound 1, [1-Bromo-3(S)-hydroxyl-4-(palmitoyloxy)butyl]-phosphonate] | – | Ki (human LPA3; [1]): 380 nM; inhibition at 30 µM (human LPA3; at 30 μM (200 nM LPA)): 71.3%; IC50 (human LPA3; read-out: LPA3 IC50): 1160 ± 259 nM; IC50 (human LPA4): 266 nM; Ki (human LPA4; antagonist mode vs 400 nM LPA): 167 nM; Emax at 10 µM (human LPA5): 54%; EC50 (human LPA5; transiently transfected RH7777 cells, NS = non-saturated): 1280 nM
2 | 393 ± 89 nM | > 1.15 µM | – | (116 ± 9.5) | weak LPA4 agonists | CCCCCCCCC=CCCCCCCCC(=O)OCC(O)CC(O)P(=O)([O-])O.[Na+] (mixture of isomers) [Compound 22a, reference compound] | (71.7 ± 2.0) | –
3 | > 30000 nM | > 30 µM | – | – | – | CCCCCCCCCCCCCCCC(=O)OCC(O)CC(O)P(=O)([O-])O.[Na+] (mixture of isomers) [Compound 22b, reference compound] | – | –
4 | – | – | 35.1% | – | Partial Antagonist | CCCCCCCCCCCCCCCC(=O)OC[C@@H](O)C[C@@H](Br)P(=O)(O)O [Compound 1a] | – | LPA3 ligand type (human LPA3): Antagonist; IC50 (human LPA3; [2]): 4440 nM; Ki (human LPA3; [3]): 1830 nM; Emax at 10 µM (human LPA5): 64%; LPA5 ligand type (human LPA5): Partial Agonist
5 | – | – | 33.1% | – | Partial Antagonist | CCCCCCCCCCCCCCCC(=O)OC[C@@H](O)C[C@H](Br)P(=O)(O)O [Compound 1b] | – | LPA3 ligand type (human LPA3): Antagonist; IC50 (human LPA3; [2]): 2090 nM; Ki (human LPA3; [3]): 623 nM; LPA5 ligand type (human LPA5): showed inhibition of LPA5; also recorded: Antagonist; IC50 (human LPA5; [4]): 977 nM; Ki (human LPA5; [4]): 376 nM
6 | 1530 ± 194 nM | 0.843 ± 0.13 µM | – | (71.2 ± 2.9) | – | CCCCCCCCCCCCCCCC(=O)OCC(O)COP(=O)(O)O (centres unmarked) [LPA (16:0), reference compound] | (102.4 ± 4.1) | –

Row | Structure (SMILES) | EC50 (human LPA3) | EC50 (human LPA4) | inhibition at 30 µM (human LPA4) | LPA3 (Emax) (human LPA3) | LPA4 ligand type (human LPA4) | LPA4 (Emax) (human LPA4) | other results
7 | CCCCCCCC/C=C\CCCCCCCC(=O)OCC(O)CCP(=O)(O)O (centres unmarked) [Compound 20a, reference compound] | > 1710 nM | 3.9 ± 0.104 µM | – | (63.5 ± 4.8) | weak LPA4 agonists | (110 ± 1.3) | –
8 | CCCCCCCCCCCCCCCC(=O)OC[C@@H](O)CCP(=O)([O-])O.[Na+] [Compound 20b, reference compound] | > 30000 nM | 5.4 ± 0.526 µM | – | – | weak LPA4 agonists | (29.3 ± 1.1) | IC50 (human LPA3; antagonist mode vs 200 nM LPA, PA = partial antagonist, read-out: LPA3 IC50): 2560 ± 1160 nM; Ki (human LPA3; [1]): 961 nM
